Test results taken from patent US7772252B2, “Heterocyclic substituted carbonyl derivatives and their use as dopamine D3 receptor ligands” (Aventis Pharmaceuticals Inc., priority 2001, dated 2010).
Read-outs that look alike come from different tables or passages of the source.

Target: T1, cloned human dopamine D3 receptors (Homo sapiens, UniProt P35462)
T1 construct: expressed in transfected cells; membrane homogenate
Test: [N-Methyl-3H]Spiroperidol binding to cloned human dopamine D3 receptors
Settings: read-out: d3Ki
In short: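 Radioligand displacement with [N-methyl-3H]spiroperidol was run on membranes from a high-expressing CHO clone carrying human D3. Membranes were prepared in 10% DMSO and stored at −80° C.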

T1 sequence (P35462 whole entry): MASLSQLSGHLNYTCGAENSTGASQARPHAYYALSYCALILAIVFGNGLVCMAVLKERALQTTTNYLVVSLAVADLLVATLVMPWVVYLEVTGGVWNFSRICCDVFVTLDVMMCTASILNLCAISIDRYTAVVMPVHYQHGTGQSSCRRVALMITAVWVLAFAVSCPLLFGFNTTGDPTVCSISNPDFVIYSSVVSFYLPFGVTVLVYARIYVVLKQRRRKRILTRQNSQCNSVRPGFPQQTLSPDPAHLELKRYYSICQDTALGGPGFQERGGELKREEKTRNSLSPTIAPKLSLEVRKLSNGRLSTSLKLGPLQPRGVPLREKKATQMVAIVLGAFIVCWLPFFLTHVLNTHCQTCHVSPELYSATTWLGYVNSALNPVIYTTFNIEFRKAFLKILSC

| Compound | Ki [nM] | Ki (Table 2, D3 receptor binding) [nM] |
| --- | --- | --- |
| CC1CCCN(C(=O)CCCN2CCN(c3csc4cc(F)ccc34)CC2)C1 (stereo not drawn) [compound 826855] | 0.58 | – |
| O=C(CCCN1CCN(c2csc3cc(C(F)(F)F)ccc23)CC1)N1CCC(N2CCCC2)CC1 [compound 826816] | 26.3 | – |
| CCOC(=O)C1CCN(C(=O)CCCN2CCN(c3csc4cc(C(F)(F)F)ccc34)CC2)CC1 [compound 826811] | 40.4 | – |
| O=C(CCCN1CCN(c2csc3cc(C(F)(F)F)ccc23)CC1)NC1CCCC1 [compound 826820] | 52.8 | – |
| CC1CC(C)CN(C(=O)CCCN2CCN(c3csc4cc(C(F)(F)F)ccc34)CC2)C1 (stereo not drawn) [compound 826818] | 29.3 | – |
| CC1CCCCN1C(=O)CCCN1CCN(c2csc3cc(C(F)(F)F)ccc23)CC1 (stereo not drawn) [compound 826813] | – | 5.16 |
| O=C(CCCN1CCN(c2csc3cc(F)ccc23)CC1)N1CCC(N2CCCC2)CC1 [compound 826856] | 1.8 | – |
| CCOC(=O)C1CCN(C(=O)CCCN2CCN(c3csc4cc(F)ccc34)CC2)CC1 [compound 826851] | 2.77 | – |
| CN(C(=O)CCCN1CCN(c2csc3cc(C(F)(F)F)ccc23)CC1)C1CCCCC1 [compound 826808] | 17.4 | – |
| O=C(CCCN1CCN(c2csc3cc(C(F)(F)F)ccc23)CC1)NC1CCCCC1 [compound 826821] | 70.1 | – |
| C[C@H]1CC[C@H](NC(=O)CCCN2CCN(c3csc4cc(F)ccc34)CC2)CC1 [compound 826844] | 0.591 | – |
| CN(C(=O)CCCN1CCN(c2csc3cc(F)ccc23)CC1)C1CCCCC1 [compound 826848] | 4.35 | – |
| CC1CCCC(NC(=O)CCCN2CCN(c3csc4cc(C(F)(F)F)ccc34)CC2)C1 (racemic) [compound 826807] | 43 | – |
| CC1CCN(C(=O)CCCN2CCN(c3csc4cc(C(F)(F)F)ccc34)CC2)CC1 [compound 826814] | – | 10.3 |
| CC1CCCCN1C(=O)CCCN1CCN(c2csc3cc(F)ccc23)CC1 (stereo not drawn) [compound 826853] | 0.128 | – |
| O=C(CCCN1CCN(c2csc3cc(F)ccc23)CC1)N1CCC(O)CC1 [compound 826852] | 3.54 | – |
| O=C(CCCN1CCN(c2csc3cc(C(F)(F)F)ccc23)CC1)N(CCO)C1CCCCC1 [compound 826810] | 86.7 | – |

| Compound | Ki [nM] | Ki (Table 2, D3 receptor binding) [nM] |
| --- | --- | --- |
| CC1CCCN1C(=O)CCCN1CCN(c2csc3cc(C(F)(F)F)ccc23)CC1 (stereo not drawn) [compound 826822] | 2.79 | – |
| O=C(CCCN1CCN(c2csc3cc(C(F)(F)F)ccc23)CC1)N1CCC(O)CC1 [compound 826812] | – | 7.29 |
| O=C(CCCN1CCN(c2csc3cc(C(F)(F)F)ccc23)CC1)N1CCCC1 [compound 826819] | 11.6 | – |
| O=C(CCCN1CCN(c2csc3cc(F)ccc23)CC1)N(CCO)C1CCCCC1 [compound 826850] | 18.8 | – |
| CC1CC(C)CN(C(=O)CCCN2CCN(c3csc4cc(F)ccc34)CC2)C1 (stereo not drawn) [compound 826858] | 3.71 | – |
| CC1CCN(C(=O)CCCN2CCN(c3csc4cc(F)ccc34)CC2)CC1 [compound 826854] | 0.116 | – |
| CC[C@H]1CC[C@H](NC(=O)CCCN2CCN(c3csc4cc(F)ccc34)CC2)CC1 [compound 826846] | 17.6 | – |
| CCOC(=O)[C@H]1CC[C@H](NC(=O)CCCN2CCN(c3csc4cc(F)ccc34)CC2)CC1 [compound 826845] | 4.42 | – |
| O=C(CCCN1CCN(c2csc3cc(F)ccc23)CC1)NC1CCCCC1 [compound 826861] | 2.89 | – |
| O=C(CCCN1CCN(c2csc3cc(F)ccc23)CC1)N1CCCC1 [compound 826859] | 3.53 | – |
| CC1CCCN(C(=O)CCCN2CCN(c3csc4cc(C(F)(F)F)ccc34)CC2)C1 (stereo not drawn) [compound 826815] | – | 31.7 |
| CC1CCCN1C(=O)CCCN1CCN(c2csc3cc(F)ccc23)CC1 (stereo not drawn) [compound 826862] | 0.951 | – |
| CCN(C(=O)CCCN1CCN(c2csc3cc(F)ccc23)CC1)C1CCCCC1 [compound 826849] | 54.2 | – |
| CC1CCCC(NC(=O)CCCN2CCN(c3csc4cc(F)ccc34)CC2)C1 (stereo not drawn) [compound 826847] | 1.01 | – |
| O=C(CCCN1CCN(c2csc3cc(F)ccc23)CC1)NC1CCCC1 (racemic) [compound 826860] | 3.48 | – |
| CN(C)C1CCN(C(=O)CCCN2CCN(c3csc4cc(C(F)(F)F)ccc34)CC2)C1 (stereo not drawn) [compound 826823] | 19 | – |
